Experimental data from ChEMBL document CHEMBL5608164, “Targeting kelch-like (KLHL) proteins: achievements, challenges and perspectives” (Eur J Med Chem, 2024).
Starred links: 1 amine or outer side, 2 acyl side, 3 side chain; linkers in the order of their positions; H or OH if unused. Positions of bridges follow the written chain, without caps; N, C: chain ends. Residues, ends and D or L forms follow the SMILES beside them. mXylylene = c1cc(C[*:1])cc(C[*:2])c1

Key:
Kelch-like protein 12 [1] = target: T1, Kelch-like protein 12 (Homo sapiens, UniProt Q53G59); assay: Binding affinity to KLHL12 (unknown origin) extracted from Escherichia coli BL21 Gold (DE3) assessed as dissociation constant by fluorescence polarization assay
T1 sequence (Q53G59 whole entry): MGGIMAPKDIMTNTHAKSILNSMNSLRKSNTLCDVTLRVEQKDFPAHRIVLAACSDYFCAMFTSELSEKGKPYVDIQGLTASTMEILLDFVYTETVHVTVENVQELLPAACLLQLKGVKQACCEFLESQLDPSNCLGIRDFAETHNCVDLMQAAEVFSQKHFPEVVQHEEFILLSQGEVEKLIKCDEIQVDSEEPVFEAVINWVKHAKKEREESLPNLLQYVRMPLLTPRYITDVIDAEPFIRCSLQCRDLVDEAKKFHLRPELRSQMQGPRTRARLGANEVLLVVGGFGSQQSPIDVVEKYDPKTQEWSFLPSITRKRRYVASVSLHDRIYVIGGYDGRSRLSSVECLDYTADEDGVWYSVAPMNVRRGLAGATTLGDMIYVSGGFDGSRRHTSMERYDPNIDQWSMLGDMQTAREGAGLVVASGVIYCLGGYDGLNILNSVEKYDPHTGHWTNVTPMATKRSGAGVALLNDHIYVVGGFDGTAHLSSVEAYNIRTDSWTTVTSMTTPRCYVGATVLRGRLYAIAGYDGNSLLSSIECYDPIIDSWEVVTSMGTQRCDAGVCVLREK

Kelch-like protein 12 [2] = target: T1, Kelch-like protein 12; assay: Binding affinity to KLHL12 (unknown origin) assessed as inhibition constant
Kelch-like protein 20 = target: T2, Kelch-like protein 20 (Homo sapiens, UniProt Q9Y2M5); assay: Binding affinity to KLHL20 (unknown origin) assessed as dissociation constant by fluorescence polarization assay
T2 sequence (Q9Y2M5 whole entry): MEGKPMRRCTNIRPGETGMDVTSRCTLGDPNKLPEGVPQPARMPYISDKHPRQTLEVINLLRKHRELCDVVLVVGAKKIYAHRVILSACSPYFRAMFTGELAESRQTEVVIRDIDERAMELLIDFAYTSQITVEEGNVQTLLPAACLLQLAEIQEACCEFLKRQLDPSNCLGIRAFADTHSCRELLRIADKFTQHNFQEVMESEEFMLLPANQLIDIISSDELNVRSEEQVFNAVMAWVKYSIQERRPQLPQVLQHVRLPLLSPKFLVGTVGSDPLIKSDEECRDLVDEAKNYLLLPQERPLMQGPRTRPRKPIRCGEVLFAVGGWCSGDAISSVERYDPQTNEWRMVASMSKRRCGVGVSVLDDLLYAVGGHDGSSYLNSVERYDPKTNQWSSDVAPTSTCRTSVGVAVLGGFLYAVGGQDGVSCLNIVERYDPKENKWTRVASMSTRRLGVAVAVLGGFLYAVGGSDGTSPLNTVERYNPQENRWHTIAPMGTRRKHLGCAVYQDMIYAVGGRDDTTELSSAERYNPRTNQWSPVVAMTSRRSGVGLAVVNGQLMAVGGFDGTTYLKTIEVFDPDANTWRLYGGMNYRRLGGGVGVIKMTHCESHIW

Kelch-like protein 3 = target: T3, Kelch-like protein 3 (Homo sapiens, UniProt Q9UH77); assay: Binding affinity to KLHL3 (unknown origin) assessed as dissociation constant by fluorescence polarization assay
T3 sequence (Q9UH77 whole entry): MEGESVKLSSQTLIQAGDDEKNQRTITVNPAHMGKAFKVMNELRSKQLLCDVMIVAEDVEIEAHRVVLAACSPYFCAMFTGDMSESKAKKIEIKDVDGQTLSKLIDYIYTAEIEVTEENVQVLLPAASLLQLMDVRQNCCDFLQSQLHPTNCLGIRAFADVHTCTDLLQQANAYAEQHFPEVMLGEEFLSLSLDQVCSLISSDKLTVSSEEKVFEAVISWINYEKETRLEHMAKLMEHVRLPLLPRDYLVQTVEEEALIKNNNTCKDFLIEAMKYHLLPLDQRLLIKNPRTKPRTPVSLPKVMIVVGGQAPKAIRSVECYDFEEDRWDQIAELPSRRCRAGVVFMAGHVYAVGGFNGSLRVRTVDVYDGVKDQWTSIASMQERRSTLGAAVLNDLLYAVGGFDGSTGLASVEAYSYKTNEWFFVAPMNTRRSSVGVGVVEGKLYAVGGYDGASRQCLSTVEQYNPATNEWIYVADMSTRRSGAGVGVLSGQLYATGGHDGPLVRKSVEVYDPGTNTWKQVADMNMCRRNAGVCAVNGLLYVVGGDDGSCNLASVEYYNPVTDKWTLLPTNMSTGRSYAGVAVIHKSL

[3] = Inhibition of human Kelch-like protein extracted from Escherichia coli
Keap1/Nrf2 = Keap1/Nrf2 (Homo sapiens, UniProt Q14145); assay: Inhibition of Keap1-Nrf2 protein-protein interaction (unknown origin) by fluorescence polarization assay
Chain of Keap1/Nrf2 (Q16236 whole entry): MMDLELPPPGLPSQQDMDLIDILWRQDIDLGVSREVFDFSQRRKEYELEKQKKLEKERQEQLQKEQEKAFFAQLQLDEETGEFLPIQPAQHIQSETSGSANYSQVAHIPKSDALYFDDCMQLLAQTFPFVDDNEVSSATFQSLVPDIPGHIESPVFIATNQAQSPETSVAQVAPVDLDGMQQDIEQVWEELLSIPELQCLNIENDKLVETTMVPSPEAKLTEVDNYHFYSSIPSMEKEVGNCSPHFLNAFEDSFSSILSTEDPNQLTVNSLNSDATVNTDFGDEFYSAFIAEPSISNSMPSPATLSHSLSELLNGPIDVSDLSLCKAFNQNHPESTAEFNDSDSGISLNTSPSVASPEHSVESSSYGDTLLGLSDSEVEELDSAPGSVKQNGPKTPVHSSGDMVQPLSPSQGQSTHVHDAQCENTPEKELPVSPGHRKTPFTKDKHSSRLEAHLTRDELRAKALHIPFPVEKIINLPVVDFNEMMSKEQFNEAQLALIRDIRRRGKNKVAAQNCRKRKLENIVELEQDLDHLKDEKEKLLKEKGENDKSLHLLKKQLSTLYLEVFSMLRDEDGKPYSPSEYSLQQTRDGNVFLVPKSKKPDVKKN
Chain of Keap1/Nrf2 (Q14145 whole entry): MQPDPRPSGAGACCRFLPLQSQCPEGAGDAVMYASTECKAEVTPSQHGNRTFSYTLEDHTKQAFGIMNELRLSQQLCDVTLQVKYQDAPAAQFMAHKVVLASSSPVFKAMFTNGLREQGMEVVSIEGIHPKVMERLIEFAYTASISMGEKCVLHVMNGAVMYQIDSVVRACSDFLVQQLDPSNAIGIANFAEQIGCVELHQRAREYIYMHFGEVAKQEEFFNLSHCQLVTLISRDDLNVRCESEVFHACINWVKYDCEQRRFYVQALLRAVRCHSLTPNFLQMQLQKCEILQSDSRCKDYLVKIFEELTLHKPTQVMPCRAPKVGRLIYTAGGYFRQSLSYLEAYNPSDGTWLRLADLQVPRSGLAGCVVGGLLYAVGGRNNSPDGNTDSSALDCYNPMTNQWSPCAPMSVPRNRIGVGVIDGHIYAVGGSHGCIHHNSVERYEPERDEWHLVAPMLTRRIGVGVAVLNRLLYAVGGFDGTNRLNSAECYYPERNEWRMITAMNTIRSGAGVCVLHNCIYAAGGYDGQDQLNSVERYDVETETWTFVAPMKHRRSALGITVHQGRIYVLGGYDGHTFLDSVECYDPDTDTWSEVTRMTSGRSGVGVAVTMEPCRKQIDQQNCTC

Q: Which results are given for H-PGAPPGRDLASVP-OH?
A: Kd (Kelch-like protein 12 [1]): 15 µM; Ki (Kelch-like protein 12 [2]): 21 µM

Q: With `CC(C)C[C@@H]1NC(=O)[C@H](CC(=O)O)NC(=O)[C@@H]2CCCN2C(=O)[C@@H](N)CSCc2cccc(c2)CSC[C@@H](C(N)=O)NC1=O` (H-CPDLC-NH2; linker 1-5 via mXylylene) as the compound, how does the Kd (Kelch-like protein 20) read?
A: Its Kd is 0.6 µM.

Q: For H-EPEEPEADQHQ-OH, which Kd (Kelch-like protein 3) is on record?
A: Its Kd is 0.69 µM.

Q: For `CC(C)C[C@H](NC(=O)[C@H](Cc1ccccc1)NC(=O)[C@H](CCC(=O)O)NC(=O)CNC(=O)[C@@H](NC(=O)[C@H](CCC(=O)O)NC(=O)[C@H](CCC(=O)O)NC(=O)[C@H](CC(=O)O)NC(=O)[C@@H](N)CC(C)C)[C@@H](C)O)C(=O)O`, which IC50 [3] is on record?
A: Its IC50 is 0.02 µM.

Q: For Ac-DPSTGEL-OH, which IC50 (Keap1/Nrf2) is on record?
A: Its IC50 is 34.4 µM.
